Laboratory results reported in article PMC11576293, “New series of 4,6-diaryl pyrimidines: facile synthesis and antiproliferative activity as dual EGFR/VEGFR-2 inhibitors” (Frontiers in Chemistry, 2024).

Columns and labels:
Assay in all cases: NCI-60 single-dose screen
Format in all cases: cell-based
[1] = test system: HL-60(TB); conditions: Homo sapiens, single dose 10 µM, '-' = no inhibition, read-out: % Growth Inhibition
[2] = test system: SF-295; conditions: Homo sapiens, single dose 10 µM, '-' = no inhibition, read-out: % Growth Inhibition
Procedure, shortened: (§1)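 Single concentration (10 μM) per compound, assayed by the NCI DTP against its 60-line panel covering leukemia, lung, colon, CNS, melanoma, ovarian, renal, prostate and breast cancers.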

[3] = test system: UO-31; conditions: Homo sapiens, single dose 10 µM, '-' = no inhibition, read-out: % Growth Inhibition
Procedure, shortened: as §1

[4] = test system: SNB-75; conditions: Homo sapiens, single dose 10 µM, '-' = no inhibition, read-out: % Growth Inhibition
Procedure, shortened: as §1

[5] = test system: SW-620; conditions: Homo sapiens, single dose 10 µM, '-' = no inhibition, read-out: % Growth Inhibition
Procedure, shortened: as §1

[6] = test system: SF-539; conditions: Homo sapiens, single dose 10 µM, '-' = no inhibition, read-out: % Growth Inhibition
Procedure, shortened: as §1

[7] = test system: U251; conditions: Homo sapiens, U-251, single dose 10 µM, '-' = no inhibition, read-out: % Growth Inhibition
Procedure, shortened: as §1

[8] = test system: HCT-15; conditions: Homo sapiens, single dose 10 µM, '-' = no inhibition, read-out: % Growth Inhibition
Procedure, shortened: as §1

[9] = test system: BT-549; conditions: Homo sapiens, single dose 10 µM, '-' = no inhibition, read-out: % Growth Inhibition
Procedure, shortened: as §1

[10] = test system: SK-MEL-28; conditions: Homo sapiens, single dose 10 µM, '-' = no inhibition, read-out: % Growth Inhibition
Procedure, shortened: as §1

[11] = test system: NCI-H23; conditions: Homo sapiens, single dose 10 µM, '-' = no inhibition, read-out: % Growth Inhibition
Procedure, shortened: as §1

[12] = test system: A498; conditions: Homo sapiens, single dose 10 µM, '-' = no inhibition, read-out: % Growth Inhibition
Procedure, shortened: as §1

[13] = test system: HOP-92; conditions: Homo sapiens, single dose 10 µM, '-' = no inhibition, read-out: % Growth Inhibition
Procedure, shortened: as §1

[14] = test system: KM12; conditions: Homo sapiens, single dose 10 µM, '-' = no inhibition, read-out: % Growth Inhibition
Procedure, shortened: as §1

[15] = test system: MOLT-4; conditions: Homo sapiens, single dose 10 µM, '-' = no inhibition, read-out: % Growth Inhibition
Procedure, shortened: as §1

[16] = test system: 786-0; conditions: Homo sapiens, single dose 10 µM, '-' = no inhibition, read-out: % Growth Inhibition
Procedure, shortened: as §1

[17] = test system: NCI-H322M; conditions: Homo sapiens, single dose 10 µM, '-' = no inhibition, read-out: % Growth Inhibition
Procedure, shortened: as §1

[18] = test system: UACC-62; conditions: Homo sapiens, single dose 10 µM, '-' = no inhibition, read-out: % Growth Inhibition
Procedure, shortened: as §1

[19] = test system: OVCAR-5; conditions: Homo sapiens, single dose 10 µM, '-' = no inhibition, read-out: % Growth Inhibition
Procedure, shortened: as §1

[20] = test system: OVCAR-3; conditions: Homo sapiens, single dose 10 µM, '-' = no inhibition, read-out: % Growth Inhibition
Procedure, shortened: as §1

[21] = test system: COLO 205; conditions: Homo sapiens, single dose 10 µM, '-' = no inhibition, read-out: % Growth Inhibition
Procedure, shortened: as §1

[22] = test system: LOX IMVI; conditions: Homo sapiens, single dose 10 µM, '-' = no inhibition, read-out: % Growth Inhibition
Procedure, shortened: as §1

[23] = test system: A549/ATCC; conditions: Homo sapiens, single dose 10 µM, '-' = no inhibition, read-out: % Growth Inhibition
Procedure, shortened: as §1

[24] = test system: SK-OV-3; conditions: Homo sapiens, single dose 10 µM, '-' = no inhibition, read-out: % Growth Inhibition
Procedure, shortened: as §1

[25] = test system: UACC-257; conditions: Homo sapiens, single dose 10 µM, '-' = no inhibition, read-out: % Growth Inhibition
Procedure, shortened: as §1

[26] = test system: HOP-62; conditions: Homo sapiens, single dose 10 µM, '-' = no inhibition, read-out: % Growth Inhibition
Procedure, shortened: as §1

[27] = test system: MDA-MB-468; conditions: Homo sapiens, single dose 10 µM, '-' = no inhibition, read-out: % Growth Inhibition
Procedure, shortened: as §1

[28] = test system: MALME-3M; conditions: Homo sapiens, single dose 10 µM, '-' = no inhibition, read-out: % Growth Inhibition
Procedure, shortened: as §1

[29] = test system: NCI-H522; conditions: Homo sapiens, single dose 10 µM, '-' = no inhibition, read-out: % Growth Inhibition
Procedure, shortened: as §1

[30] = test system: TK-10; conditions: Homo sapiens, single dose 10 µM, '-' = no inhibition, read-out: % Growth Inhibition
Procedure, shortened: as §1

[31] = test system: OVCAR-4; conditions: Homo sapiens, single dose 10 µM, '-' = no inhibition, read-out: % Growth Inhibition
Procedure, shortened: as §1

[32] = test system: T-47D; conditions: Homo sapiens, T47D, single dose 10 µM, '-' = no inhibition, read-out: % Growth Inhibition
Procedure, shortened: as §1

[33] = test system: RPMI-8226; conditions: Homo sapiens, single dose 10 µM, '-' = no inhibition, read-out: % Growth Inhibition
Procedure, shortened: as §1

[34] = test system: EKVX; conditions: Homo sapiens, single dose 10 µM, '-' = no inhibition, read-out: % Growth Inhibition
Procedure, shortened: as §1

[35] = test system: NCI-H460; conditions: Homo sapiens, single dose 10 µM, '-' = no inhibition, read-out: % Growth Inhibition
Procedure, shortened: as §1

[36] = test system: IGROV1; conditions: Homo sapiens, IGROV-1, single dose 10 µM, '-' = no inhibition, read-out: % Growth Inhibition
Procedure, shortened: as §1

[37] = test system: SNB-19; conditions: Homo sapiens, single dose 10 µM, '-' = no inhibition, read-out: % Growth Inhibition
Procedure, shortened: as §1

[38] = test system: DU-145; conditions: Homo sapiens, single dose 10 µM, '-' = no inhibition, read-out: % Growth Inhibition
Procedure, shortened: as §1

[39] = test system: RXF 393; conditions: Homo sapiens, single dose 10 µM, '-' = no inhibition, read-out: % Growth Inhibition
Procedure, shortened: as §1

[40] = test system: NCI/ADR-RES; conditions: Homo sapiens, single dose 10 µM, '-' = no inhibition, read-out: % Growth Inhibition
Procedure, shortened: as §1

[41] = test system: SR; conditions: Homo sapiens, single dose 10 µM, '-' = no inhibition, read-out: % Growth Inhibition
Procedure, shortened: as §1

[42] = test system: PC-3; conditions: Homo sapiens, single dose 10 µM, '-' = no inhibition, read-out: % Growth Inhibition
Procedure, shortened: as §1

[43] = test system: ACHN 1; conditions: Homo sapiens, single dose 10 µM, '-' = no inhibition, read-out: % Growth Inhibition
Procedure, shortened: as §1

[44] = test system: MDA-MB231/ATCC; conditions: Homo sapiens, MDA-MB-231, single dose 10 µM, '-' = no inhibition, read-out: % Growth Inhibition
Procedure, shortened: as §1

[45] = test system: HT29; conditions: Homo sapiens, HT-29, single dose 10 µM, '-' = no inhibition, read-out: % Growth Inhibition
Procedure, shortened: as §1

[46] = test system: CAKI-1; conditions: Homo sapiens, single dose 10 µM, '-' = no inhibition, read-out: % Growth Inhibition
Procedure, shortened: as §1

[47] = test system: M14; conditions: Homo sapiens, single dose 10 µM, '-' = no inhibition, read-out: % Growth Inhibition
Procedure, shortened: as §1

Measured: inhibition at 10 µM

CCCSc1nc(-c2ccc(OC)cc2)cc(-c2cccc(OC)c2)n1 [Compound 18, 6-(3-Methoxyphenyl)-4-(4-methoxyphenyl)-2-(propylthio)pyrimidine]
0.86%: [21]
7.77%: [23]
4%: [46]
14.9%: [41]
20.3%: [1]
8.49%: [8]
4.83%: [45]
1.47%: [14]
13.8%: [32]
3.94%: [31]
6.49%: [15]
9.08%: [47]
< 0%: all other assays above
